Reference: the supplement of paper PMC10331698
± gives the standard deviation of the averaged measurements.

Assays:
Assay in all cases: level (log10 ratio to DMSO vehicle control); higher = higher biomarker level / cell amount than vehicle control
Settings in all cases: in DMSO
[1] = compound: FC(F)(F)C(F)(F)C(F)(F)C(F)(F)C(F)(F)C(F)(F)CC1CO1 [3-(Perfluorohexyl)-1,2-epoxypropane]
Experimental: (§1)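 BioMAP Diversity Plus panel of 12 human primary cell co-culture systems (3C, 4H, LPS, SAg, BT, BF4T, BE3C, CASM3C, HDF3CGF, KF3CT, MyoF, Mphg). Compounds were added 1 h before stimulation and left for 24 h (MyoF 48 h; BT 72 h for soluble read-outs or 6 d for IgG). Biomarkers were read by ELISA, cytotoxicity by SRB, PBMC viability and proliferation by Alamar Blue. Each well value was divided by the mean of 8 DMSO control wells on the same plate and log10 transformed; duplicate blinded samples were tested at 4 concentrations.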

[2] = compound: COC(=O)C(F)(F)C(F)(F)OC(F)(C(F)(F)F)C(F)(F)OC(F)=C(F)F [Methyl perfluoro(3-(1-ethenyloxypropan-2-yloxy)propanoate)]
Experimental: as §1

[3] = compound: O=S(=O)(Cl)C(F)(F)C(F)(F)C(F)(F)C(F)(F)C(F)(F)C(F)(F)C(F)(F)C(F)(F)F [Perfluoro-1-octanesulfonyl chloride]
Experimental: as §1

[4] = compound: O=S(=O)(F)C(F)(F)C(F)(F)C(F)(F)C(F)(F)C(F)(F)C(F)(F)C(F)(F)C(F)(F)F [Perfluorooctanesulfonyl fluoride]
Experimental: as §1

[5] = compound: O=S(=O)(O)C(F)(F)C(F)(F)C(F)(F)C(F)(F)C(F)(F)C(F)(F)C(F)(F)C(F)(F)C(F)(F)C(F)(F)F [Sodium perfluorodecanesulfonate]
Experimental: as §1

[6] = compound: NS(=O)(=O)C(F)(F)C(F)(F)C(F)(F)C(F)(F)C(F)(F)C(F)(F)F [Perfluorohexanesulfonamide]
Experimental: as §1

Test System | level (log10) ([1]; 6700 nM) | level (log10) ([1]; 20000 nM) | level (log10) ([1]; 60000 nM) | level (log10) ([2]; 6700 nM) | level (log10) ([2]; 20000 nM) | level (log10) ([3]; 6700 nM) | level (log10) ([3]; 20000 nM) | level (log10) ([3]; 60000 nM) | level (log10) ([4]; 6700 nM) | level (log10) ([4]; 20000 nM) | level (log10) ([4]; 60000 nM) | level (log10) ([5]; 1500 nM) | level (log10) ([5]; 4400 nM) | level (log10) ([5]; 13000 nM) | level (log10) ([5]; 40000 nM) | level (log10) ([6]; 6700 nM) | level (log10) ([6]; 20000 nM) | level (log10) ([6]; 60000 nM)
LPS:CD40 | -0.0115 ± 0.012 | 0.01 ± 0.014 | -0.0045 ± 0.015 | 0.0235 ± 0.035 | -0.0365 ± 0.022 | -0.0175 ± 0.081 | -0.0145 ± 0.042 | -0.027 ± 0.0042 | 0.031 ± 0.12 | 0.0455 ± 0.094 | 0.033 ± 0.1 | -0.017 ± 0.024 | -0.028 ± 0.0099 | -0.0525 ± 0.0078 | -0.242 ± 0.026 | 0.005 ± 0.068 | -0.045 ± 0.09 | -0.191 ± 0.04
BF4T:IL-1alpha | 0.003 ± 0.0071 | -0.0135 ± 0.005 | 0.013 ± 0.028 | -0.002 ± 0.0014 | 0.0105 ± 0.023 | -0.0015 ± 0.0092 | -0.0045 ± 0.005 | -0.0925 ± 0.005 | -0.0005 ± 0.0064 | -0.0015 ± 0.00071 | 0.0155 ± 0.021 | 0.037 ± 0.034 | -0.0165 ± 0.033 | 0.0095 ± 0.011 | -0.0155 ± 0.0064 | -0.006 ± 0.0042 | -0.008 ± 0.017 | -0.0675 ± 0.016
BT:sTNF-alpha | 0.013 ± 0.11 | 0.128 ± 0.0064 | 0.0765 ± 0.14 | -0.0085 ± 0.018 | 0.0935 ± 0.032 | 0.067 ± 0.042 | 0.126 ± 0.016 | 0.102 ± 0.16 | 0.0075 ± 0.044 | -0.0215 ± 0.0092 | -0.041 ± 0.15 | -0.018 ± 0.13 | 0.005 ± 0.067 | -0.0135 ± 0.0064 | 0.0075 ± 0.21 | -0.013 ± 0.12 | -0.027 ± 0.065 | 0.068 ± 0.09
BF4T:CCL2/MCP-1 | -0.003 ± 0.028 | -0.007 ± 0.028 | 0.017 ± 0.028 | 0.041 ± 0.033 | -0.152 ± 0.32 | 0.038 ± 0.028 | -0.0205 ± 0.021 | -0.378 ± 0.021 | 0.006 ± 0.0071 | -0.0425 ± 0.0064 | -0.0055 ± 0.037 | 0.0015 ± 0.011 | 0.008 ± 0.018 | 0.0125 ± 0.043 | 0.051 ± 0.0042 | -0.0415 ± 0.018 | -0.072 ± 0.0085 | -0.107 ± 0.0042
BF4T:CXCL8/IL-8 | 0.013 ± 0.02 | -0.02 ± 0.028 | 0.0075 ± 0.0064 | 0.0395 ± 0.016 | 0.095 ± 0.0099 | 0.002 ± 0.024 | 0.0225 ± 0.012 | -0.009 ± 0.018 | 0.0175 ± 0.011 | 0.015 ± 0.0028 | 0.0355 ± 0.005 | 0.0305 ± 0.069 | 0.034 ± 0.0099 | 0.0995 ± 0.021 | 0.136 ± 0.0057 | -0.031 ± 0.052 | -0.051 ± 0.034 | -0.073 ± 0.02
BT:Secreted IgG | -0.0085 ± 0.032 | -0.0035 ± 0.018 | -0.0005 ± 0.018 | 0.006 ± 0.0014 | 0.007 ± 0.03 | -0.033 ± 0.0042 | -0.0265 ± 0.039 | -0.042 ± 0.034 | 0.0025 ± 0.026 | 0.0185 ± 0.0035 | 0.004 ± 0.03 | -0.026 ± 0.038 | -0.0155 ± 0.022 | -0.0275 ± 0.046 | -0.028 ± 0.028 | -0.024 ± 0.016 | -0.0005 ± 0.046 | -0.133 ± 0.037
BT:PBMC Cytotoxicity | -0.016 ± 0.0028 | -0.017 ± 0.025 | 0.0175 ± 0.016 | 0.0195 ± 0.036 | 0.049 ± 0.058 | 0.0495 ± 0.016 | 0.055 | 0.114 ± 0.0021 | -0.001 ± 0.016 | -0.01 ± 0.041 | -0.005 ± 0.0071 | -0.025 ± 0.023 | -0.005 ± 0.0042 | -0.0035 ± 0.026 | 0.007 ± 0.035 | 0.0405 ± 0.011 | 0.047 ± 0.027 | 0.0775 ± 0.011
BF4T:MMP-9 | 0.001 ± 0.0071 | 0.005 ± 0.0071 | 0.023 ± 0.04 | -0.0175 ± 0.018 | 0.0125 ± 0.069 | 0.0055 ± 0.0078 | 0.0065 ± 0.021 | -0.314 ± 0.083 | 0.007 ± 0.02 | -0.007 ± 0.0099 | 0.015 ± 0.0028 | 0.0255 ± 0.0078 | -0.007 ± 0.045 | -0.0285 ± 0.015 | -0.058 ± 0.021 | 0.0205 ± 0.021 | 0.011 ± 0.0085 | -0.003 ± 0.0085
LPS:CD106/VCAM-1 | -0.002 ± 0.011 | -0.0235 ± 0.015 | -0.022 ± 0.017 | -0.066 ± 0.013 | -0.0805 ± 0.0064 | -0.018 ± 0.0071 | -0.0065 ± 0.0092 | -0.022 ± 0.02 | 0.0025 ± 0.011 | -0.0125 ± 0.00071 | 0.007 ± 0.0085 | -0.0045 ± 0.029 | 0.0035 ± 0.0078 | -0.0265 ± 0.035 | -0.076 ± 0.0028 | -0.029 ± 0.047 | -0.0315 ± 0.049 | -0.097 ± 0.016
BF4T:CD106/VCAM-1 | 0.0195 ± 0.0021 | 0.017 ± 0.0028 | 0.0275 ± 0.028 | -0.007 ± 0.071 | -0.091 ± 0.025 | -0.0255 ± 0.029 | -0.04 ± 0.028 | -0.126 ± 0.088 | -0.007 | -0.0355 ± 0.0021 | -0.044 ± 0.031 | -0.0095 ± 0.021 | -0.0125 ± 0.069 | -0.096 ± 0.035 | -0.106 ± 0.028 | -0.0295 ± 0.022 | -0.104 ± 0.0099 | -0.198 ± 0.013
SAg:CXCL9/MIG | 0.008 ± 0.0085 | 0.006 ± 0.0057 | 0.002 ± 0.0042 | -0.0145 ± 0.021 | 0.0055 ± 0.0035 | -0.007 ± 0.0071 | -0.018 ± 0.0028 | 0.0075 ± 0.021 | -0.005 ± 0.0014 | -0.0015 ± 0.0078 | 0.002 ± 0.018 | 0.0075 ± 0.013 | -0.0085 ± 0.011 | 0.015 ± 0.013 | -0.0255 ± 0.013 | -0.0135 ± 0.018 | -0.004 ± 0.0071 | 0.0105 ± 0.0064
BF4T:CD90 | -0.005 ± 0.0042 | -0.0055 ± 0.0092 | 0.0085 ± 0.028 | -0.004 ± 0.017 | -0.0045 ± 0.0078 | 0.0005 ± 0.00071 | -0.019 | -0.028 ± 0.038 | -0.0065 ± 0.0078 | -0.014 ± 0.0057 | 0.0065 ± 0.0021 | -0.0085 ± 0.012 | -0.0055 ± 0.005 | -0.0065 ± 0.0035 | 0.002 ± 0.0057 | -0.0055 ± 0.00071 | -0.0085 ± 0.0078 | -0.035 ± 0.0099
BF4T:CCL26/Eotaxin-3 | -0.0225 ± 0.076 | -0.016 ± 0.065 | 0.001 ± 0.0042 | -0.007 | -0.069 ± 0.014 | -0.0515 ± 0.0064 | -0.142 ± 0.011 | -0.326 ± 0.051 | -0.0265 ± 0.021 | 0.0035 ± 0.016 | -0.014 ± 0.016 | -0.0815 ± 0.026 | -0.131 ± 0.0078 | -0.23 ± 0.066 | -0.298 ± 0.013 | -0.017 ± 0.018 | -0.064 ± 0.0028 | -0.151 ± 0.012
BE3C:EGFR | -0.001 ± 0.0085 | -0.0015 ± 0.0035 | 0.007 ± 0.013 | -0.04 ± 0.014 | -0.053 ± 0.031 | -0.0135 ± 0.019 | -0.0285 ± 0.00071 | -0.121 ± 0.014 | 0.0125 ± 0.0064 | 0.017 ± 0.025 | -0.0095 ± 0.012 | 0.0185 ± 0.0035 | 0.0015 ± 0.0064 | -0.022 ± 0.014 | -0.032 ± 0.027 | 0.023 ± 0.0057 | 0.0205 ± 0.033 | 0.014 ± 0.017
